Experimental data taken from patent US12472168B2, “Ring-fused thiazolino 2-pyridones, methods for preparation thereof and their use in the treatment and/or prevention of a disease involving gram-positive bacteria” (Quretech Bio AB, priority 2017, dated 2025).
In brackets after ≈: the same amount, converted by molar mass. Structures can show the parent of a compound that is named as a salt. Where two headings read alike, the source gives them in different places.

Assays:
MRSA = experiment: Minimum Inhibitory Concentration (MIC) and Minimum Bactericidal Concentration (MBC) assays; assay type: cell-based, Methicillin-resistant Staphylococcus aureus; conditions: compound alone, no antibiotic; for MIC: overnight (18 hrs)
Method: (§1) MIC was defined by the lowest concentration of the test compound that inhibits visible growth of pathogen of interest. The optical density of the pathogen of interest culture was measured by OD600.
(§2) MBC was determined colony forming units (CFUs) enumeration by serially diluting and plating bacterial cultures on BHI plates.
(§3) Thus, no antibiotic was used in Table 2.

Streptococcus = experiment: MIC and MBC assays; assay type: cell-based; conditions: compound alone, no antibiotic
Method: as §1, §2, §3

E. faecalis = experiment: MIC and MBC assays; assay type: cell-based; conditions: Enterococcus faecalis, compound alone, no antibiotic; for MIC: overnight (18 hrs)
Method: as §1, §2, §3

Staph. aureus = experiment: MIC and MBC assays; assay type: cell-based; conditions: Staphylococcus aureus, compound alone, no antibiotic; for MIC: overnight (18 hrs)
Method: (§4) […]. MIC was defined by the lowest concentration of the test compound that inhibits visible growth of pathogen of interest. The optical density of the pathogen of interest culture was measured by OD600.
(§5) […]. MBC was determined colony forming units (CFUs) enumeration by serially diluting and plating bacterial cultures on BHI plates.
(§6) . Thus, no antibiotic was used in Table 2.

Strep. pyogenes = experiment: MIC and MBC assays; assay type: cell-based; conditions: Streptococcus pyogenes, compound alone, no antibiotic
Method: as §4, §5, §6

[1] = Staphylococcus aureus, 18 h, read-out: MIC

Structure (SMILES): CCOc1ccc(-c2sc3c(C4CC4)c(Cc4cccc5ccccc45)cc(=O)n3c2C(=O)O)cc1C [Example 5, 5-Cyclopropyl-8-(4-ethoxy-3-methyl-phenyl)-4-[(1-naphthyl)methyl]-2-oxo-7-thia-1-azabicyclo[4.3.0]nona-3,5,8-triene-9-carboxylic acid]
- MIC (MRSA; [1]): 150 µM (≈ 76.4 µg/mL)
- MBC (Streptococcus): 10 µM (≈ 5.1 µg/mL)
- MIC (E. faecalis): 250 µM (≈ 127 µg/mL)

Structure (SMILES): CCCCCCn1cc(-c2sc3c(OC)c(Cc4cccc5ccccc45)cc(=O)n3c2C(=O)O)nn1 [Example 15, 8-(1-Hexyl-1H-1,2,3-triazol-4-yl)-5-methoxy-4-[(1-naphthyl)methyl]-2-oxo-7-thia-1-azabicyclo[4.3.0]nona-3,5,8-triene-9-carboxylic acid]
- MIC (MRSA; [1]): 100 µM (≈ 51.7 µg/mL)

Structure (SMILES): COc1c(Cc2cccc3ccccc23)cc(=O)n2c(C(=O)O)c(-c3ccc(OCC4CC4)c(C)c3)sc12 [Example 26, 8-[4-(Cyclopropylmethoxy)-3-methyl-phenyl]-5-methoxy-4-[(1-naphthyl)methyl]-2-oxo-7-thia-1-azabicyclo[4.3.0]nona-3,5,8-triene-9-carboxylic acid]
- MIC (MRSA; [1]): 12 µM (≈ 6.31 µg/mL)
- MIC (E. faecalis): > 100 µM

Structure (SMILES): C#CCCCCOc1ccc(-c2sc3c(OC)c(Cc4cccc5ccccc45)cc(=O)n3c2C(=O)O)cc1C [Example 22, 8-[4-(5-Hexynyloxy)-3-methyl-phenyl]-5-methoxy-4-[(1-naphthyl)methyl]-2-oxo-7-thia-1-azabicyclo[4.3.0]nona-3,5,8-triene-9-carboxylic acid]
- MIC (MRSA; [1]): 6 µM (≈ 3.31 µg/mL)
- MIC (E. faecalis): > 100 µM

Structure (SMILES): Cc1ccc(-c2sc3c(C4CC4)c(Cc4cccc5ccccc45)cc(=O)n3c2C(=O)O)cc1 [Example 31, 5-Cyclopropyl-4-[(1-naphthyl)methyl]-2-oxo-8-(p-tolyl)-7-thia-1-azabicyclo[4.3.0]nona-3,5,8-triene-9-carboxylic acid]
- MIC (MRSA; [1]): 50 µM (≈ 23.3 µg/mL)
- MBC (MRSA; Staphylococcus aureus): 100 µM (≈ 46.6 µg/mL)
- MBC (Staph. aureus): 100 µM (≈ 46.6 µg/mL)
- MIC (Staph. aureus): 50 µM (≈ 23.3 µg/mL)
- MBC (Strep. pyogenes): 50 µM (≈ 23.3 µg/mL)

Structure (SMILES): CCCOc1ccc(-c2sc3c(OC)c(Cc4cccc5ccccc45)cc(=O)n3c2C(=O)O)cc1C [Example 10, 5-Methoxy-4-[(1-naphthyl)methyl]-2-oxo-8-(4-propoxy-3-methyl-phenyl)-7-thia-1-azabicyclo[4.3.0]nona-3,5,8-triene-9-carboxylic acid]
- MIC (MRSA; [1]): 17 µM (≈ 8.73 µg/mL)
- MBC (MRSA; Staphylococcus aureus): 17 µM (≈ 8.73 µg/mL)
- MBC (Streptococcus): 5 µM (≈ 2.57 µg/mL)
- MBC (E. faecalis): 50 µM (≈ 25.7 µg/mL)
- MIC (E. faecalis): 188 µM (≈ 96.6 µg/mL)

Structure (SMILES): CCCCCCOc1ccc(-c2sc3c(N)c(Cc4cccc5ccccc45)cc(=O)n3c2C(=O)O)cc1C [Example 27, 5-Amino-8-[4-(hexyloxy)-3-methyl-phenyl]-4-[(1-naphthyl)methyl]-2-oxo-7-thia-1-azabicyclo[4.3.0]nona-3,5,8-triene-9-carboxylic acid]
- MIC (MRSA; [1]): 25 µM (≈ 13.5 µg/mL)

Structure (SMILES): COCCOc1ccc(-c2sc3c(OC)c(Cc4cccc5ccccc45)cc(=O)n3c2C(=O)O)cc1C [Example 17, 5-Methoxy-8-[4-(2-methoxyethoxy)-3-methyl-phenyl]-4-[(1-naphthyl)methyl]-2-oxo-7-thia-1-azabicyclo[4.3.0]nona-3,5,8-triene-9-carboxylic acid]
- MIC (MRSA; [1]): > 25 µM

Structure (SMILES): CCCCCCCOc1ccc(-c2sc3c(C4CC4)c(Cc4cccc5ccccc45)cc(=O)n3c2C(=O)O)cc1C [Example 3, 5-Cyclopropyl-8-[4-(heptyloxy)-3-methyl-phenyl] 4-[(1-naphthyl)methyl]-2-oxo-7-thia-1-azabicyclo[4.3.0]nona-3,5,8-triene-9-carboxylic acid]
- MIC (MRSA; [1]): 167 µM (≈ 96.8 µg/mL)
- MBC (Streptococcus): 50 µM (≈ 29 µg/mL)
- MBC (E. faecalis): 100 µM (≈ 58 µg/mL)
- MIC (E. faecalis): 183 µM (≈ 106 µg/mL)

Structure (SMILES): CCCCCOc1ccc(-c2sc3c(C4CC4)c(Cc4cccc5ccccc45)cc(=O)n3c2C(=O)O)cc1 [Example 12, 5-Cyclopropyl-4-[(1-naphthyl)methyl]-2-oxo-8-[p-(pentyloxy)phenyl]-7-thia-1-azabicyclo[4.3.0]nona-3,5,8-triene-9-carboxylic acid]
- MIC (MRSA; [1]): 70 µM (≈ 37.6 µg/mL)
- MBC (MRSA; Staphylococcus aureus): 25 µM (≈ 13.4 µg/mL)
- MBC (Streptococcus): 2 µM (≈ 1.08 µg/mL)
- MIC (E. faecalis): 300 µM (≈ 161 µg/mL)

Structure (SMILES): C=CCOc1ccc(-c2sc3c(OC)c(Cc4cccc5ccccc45)cc(=O)n3c2C(=O)O)cc1C [Example 21, 8-[4-(Allyloxy)-3-methyl-phenyl]-5-methoxy-4-[(1-naphthyl)methyl]-2-oxo-7-thia-1-azabicyclo[4.3.0]nona-3,5,8-triene-9-carboxylic acid]
- MIC (MRSA; [1]): 19 µM (≈ 9.72 µg/mL)
- MIC (E. faecalis): > 100 µM

Structure (SMILES): COc1c(Cc2cccc3ccccc23)cc(=O)n2c(C(=O)O)c(-c3ccc(OCCC=C(C)C)c(C)c3)sc12 [Example 24, 5-Methoxy-8-[4-(4-methyl-3-pentenyloxy)-3-methyl-phenyl]-4-[(1-naphthyl)methyl]-2-oxo-7-thia-1-azabicyclo[4.3.0]nona-3,5,8-triene-9-carboxylic acid]
- MIC (MRSA; [1]): 45 µM (≈ 24.9 µg/mL)
- MIC (E. faecalis): > 100 µM

Structure (SMILES): CCCCCCn1cc(-c2sc3c(OC)c(Cc4cccc5ccccc45)cc(=O)n3c2C(=O)O)nn1 [Example 16, 8-(1-Hexyl-1H-1,2,3-triazol-4-yl)-5-methoxy-4-[(1-naphthyl)methyl]-2-oxo-7-thia-1-azabicyclo[4.3.0]nona-3,5,8-triene-9-carboxylic acid imidazole salt]
- MIC (MRSA): 200/nd uM

Structure (SMILES): CCCCCOc1ccc(-c2sc3c(C4CC4)c(Cc4cccc5ccccc45)cc(=O)n3c2C(=O)O)cc1C [Example 6, 5-Cyclopropyl-4-[(1-naphthyl)methyl]-2-oxo-8-[4-(pentyloxy)-3-methyl-phenyl]-7-thia-1-azabicyclo[4.3.0]nona-3,5,8-triene-9-carboxylic acid]
- MIC (MRSA; [1]): 69 µM (≈ 38.1 µg/mL)
- MBC (MRSA; Staphylococcus aureus): 37 µM (≈ 20.4 µg/mL)
- MBC (Streptococcus): 23 µM (≈ 12.7 µg/mL)
- MBC (E. faecalis): 100 µM (≈ 55.2 µg/mL)
- MIC (E. faecalis): 200 µM (≈ 110 µg/mL)

Structure (SMILES): O=C(O)c1c(-c2ccccc2)sc2c(C3CC3)c(Cc3cccc4ccccc34)cc(=O)n12 [Example 29, 5-Cyclopropyl-4-[(1-naphthyl)methyl]-2-oxo-8-phenyl-7-thia-1-azabicyclo[4.3.0]nona-3,5,8-triene-9-carboxylic acid]
- MIC (MRSA; [1]): 250 µM (≈ 113 µg/mL)
- MBC (MRSA; Staphylococcus aureus): 200 µM (≈ 90.3 µg/mL)
- MBC (Staph. aureus): 200 µM (≈ 90.3 µg/mL)
- MIC (Staph. aureus): 100 µM (≈ 45.2 µg/mL)
- MBC (Strep. pyogenes): 25 µM (≈ 11.3 µg/mL)
- MIC (Strep. pyogenes; overnight (18 hrs)): 25 µM (≈ 11.3 µg/mL)

Structure (SMILES): COCCOc1ccc(-c2sc3c(C4CC4)c(Cc4cccc5ccccc45)cc(=O)n3c2C(=O)O)cc1C [Example 18, 5-Cyclopropyl-8-[4-(2-methoxyethoxy)-3-methyl-phenyl]-4-[(1-naphthyl)methyl]-2-oxo-7-thia-1-azabicyclo[4.3.0]nona-3,5,8-triene-9-carboxylic acid]
- MIC (MRSA; [1]): > 25 µM

Structure (SMILES): CCCCOc1ccc(-c2sc3c(C4CC4)c(Cc4cccc5ccccc45)cc(=O)n3c2C(=O)O)cc1C [Example 7, 8-(4-Butoxy-3-methyl-phenyl)-5-cyclopropyl-4-[(1-naphthyl)methyl]-2-oxo-7-thia-1-azabicyclo[4.3.0]nona-3,5,8-triene-9-carboxylic acid]
- MIC (MRSA; [1]): 25 µM (≈ 13.4 µg/mL)
- MBC (MRSA; Staphylococcus aureus): 32 µM (≈ 17.2 µg/mL)
- MBC (Streptococcus): 7 µM (≈ 3.76 µg/mL)
- MBC (E. faecalis): 19 µM (≈ 10.2 µg/mL)
- MIC (E. faecalis): 95 µM (≈ 51.1 µg/mL)

Structure (SMILES): CCCCCCOc1ccc(-c2sc3c(C4CC4)c(Cc4cccc5ccccc45)cc(=O)n3c2C(=O)O)cc1C [Example 1, 5-Cyclopropyl-8-[4-(hexyloxy)-3-methyl-phenyl]-4-[(1-naphthyl)methyl]-2-oxo-7-thia-1-azabicyclo[4.3.0]nona-3,5,8-triene-9-carboxylic acid]
- MIC (MRSA; [1]): 20 µM (≈ 11.3 µg/mL)
- MBC (MRSA; Staphylococcus aureus): 25 µM (≈ 14.1 µg/mL)
- MBC (Streptococcus): 9 µM (≈ 5.09 µg/mL)
- MBC (E. faecalis): 25 µM (≈ 14.1 µg/mL)
- MIC (E. faecalis): 67 µM (≈ 37.9 µg/mL)

Structure (SMILES): O=C(O)c1c(-c2ccc3[nH]ccc3c2)sc2c(C3CC3)c(Cc3cccc4ccccc34)cc(=O)n12 [Example 32, 5-Cyclopropyl-8-(1H-indol-5-yl)-4-[(1-naphthyl)methyl]-2-oxo-7-thia-1-azabicyclo[4.3.0]nona-3,5,8-triene-9-carboxylic acid]
- MIC (MRSA; [1]): 200 µM (≈ 98.1 µg/mL)
- MBC (MRSA; Staphylococcus aureus): > 400 µM
- MBC (Strep. pyogenes): 50 µM (≈ 24.5 µg/mL)
- MBC (E. faecalis): > 400 µM

Structure (SMILES): O=C(O)c1c(-c2ccco2)sc2c(C3CC3)c(Cc3cccc4ccccc34)cc(=O)n12 [Example 35, 5-Cyclopropyl-8-(2-furyl)-4-[(1-naphthyl)methyl]-2-oxo-7-thia-1-azabicyclo[4.3.0]nona-3,5,8-triene-9-carboxylic acid]
- MBC (Strep. pyogenes): 50 µM (≈ 22.1 µg/mL)

Structure (SMILES): C=CCCCCOc1ccc(-c2sc3c(OC)c(Cc4cccc5ccccc45)cc(=O)n3c2C(=O)O)cc1C [Example 25, 8-[4-(5-Hexenyloxy)-3-methyl-phenyl]-5-methoxy-4-[(1-naphthyl)methyl]-2-oxo-7-thia-1-azabicyclo[4.3.0]nona-3,5,8-triene-9-carboxylic acid]
- MIC (MRSA; [1]): 45 µM (≈ 24.9 µg/mL)
- MIC (E. faecalis): > 100 µM

Structure (SMILES): O=C(O)c1c(-c2ccoc2)sc2c(C3CC3)c(Cc3cccc4ccccc34)cc(=O)n12 [Example 36, 5-Cyclopropyl-8-(3-furyl)-4-[(1-naphthyl)methyl]-2-oxo-7-thia-1-azabicyclo[4.3.0]nona-3,5,8-triene-9-carboxylic acid]
- MBC (Strep. pyogenes): 25 µM (≈ 11 µg/mL)

Structure (SMILES): O=C(O)c1c(-c2ccc3c(c2)OCCO3)sc2c(C3CC3)c(Cc3cccc4ccccc34)cc(=O)n12 [Example 33, 5-Cyclopropyl-8-(1,4-dioxa-2,3-dihydronaphth-6-yl)-4-[(1-naphthyl)methyl]-2-oxo-7-thia-1-azabicyclo[4.3.0]nona-3,5,8-triene-9-carboxylic acid]
- MBC (Staph. aureus): 400 µM (≈ 204 µg/mL)
- MBC (Strep. pyogenes): 20 µM (≈ 10.2 µg/mL)
- MIC (E. faecalis): > 400 µM

Structure (SMILES): O=C(O)c1c(-c2ccsc2)sc2c(C3CC3)c(Cc3cccc4ccccc34)cc(=O)n12 [Example 34, 5-Cyclopropyl-4-[(1-naphthyl)methyl]-2-oxo-8-(3-thienyl)-7-thia-1-azabicyclo[4.3.0]nona-3,5,8-triene-9-carboxylic acid]
- MBC (MRSA; Staphylococcus aureus): 250 µM (≈ 114 µg/mL)
- MBC (Staph. aureus): 400 µM (≈ 183 µg/mL)
- MBC (Strep. pyogenes): 25 µM (≈ 11.4 µg/mL)
